Source: patent US20050222408A1, “Heterocyclic amides with anti-tuberculosis activity” (priority 2003, published 2005)
Values after ≈ are worked out from the molar mass of the structure shown.

These compounds were tested on Vero cells (assay: Cytotoxicity, alamar blue assay against Vero cells). Conditions: Chlorocebus sabaeus, Vero, read-out: ToxIC50.
Assay type: cell-based
`O=C(NCCc1ccccc1)c1ccc([N+](=O)[O-])o1` [Compound 27, 5-Nitro-furan-2-carboxylic acid phenethyl-amide] showed an IC50 of 25.2 µg/mL (≈ 96.9 µM). `COc1ccc(CCNC(=O)c2ccc([N+](=O)[O-])o2)cc1` [Compound 28, 5-Nitro-furan-2-carboxylic acid [2-(4-methoxy-phenyl)-ethyl]-amide] gave an IC50 of 20.4 µg/mL (≈ 70.5 µM).

Same assay, conditions: Chlorocebus sabaeus; Table 1; Vero cells, alamar blue; unit inferred; read-out: ToxIC50
With `O=C(NC1CCCCC1)c1ccc([N+](=O)[O-])o1` [Compound 15, 5-Nitro-furan-2-carboxylic acid cyclohexylamide] the IC50 was 9.08 µg/mL (≈ 38.1 µM). `O=C(NC12CC3CC(CC(C3)C1)C2)c1ccc([N+](=O)[O-])o1` [Compound 16, 5-Nitro-furan-2-carboxylic acid adamantan-1-ylamide] was tested, and the IC50 was 9.43 µg/mL (≈ 32.5 µM). With `O=C(Nc1ccccc1)c1ccc([N+](=O)[O-])o1` [Compound 17, 5-Nitro-furan-2-carboxylic acid phenylamide] the IC50 was 2.19 µg/mL (≈ 9.43 µM). In the case of `COc1ccc(CNC(=O)c2ccc([N+](=O)[O-])o2)cc1` [Compound 20, 5-Nitro-furan-2-carboxylic acid 4-methoxy-benzylamide], the IC50 was 16.4 µg/mL (≈ 59.2 µM). `O=C(NCc1ccccc1Cl)c1ccc([N+](=O)[O-])o1` [Compound 21, 5-Nitro-furan-2-carboxylic acid 2-chloro-benzylamide] showed an IC50 of 11.8 µg/mL (≈ 41.9 µM). `COc1cc(CNC(=O)c2ccc([N+](=O)[O-])o2)cc(OC)c1OC` [Compound 24, 5-Nitro-furan-2-carboxylic acid 3,4,5-trimethoxy-benzylamide] gave an IC50 of 23.6 µg/mL (≈ 70.1 µM). With `O=C(NC1CCc2ccccc21)c1ccc([N+](=O)[O-])o1` (stereo not drawn) [Compound 26, 5-Nitro-furan-2-carboxylic acid indan-1-ylamide] the IC50 was 10.3 µg/mL (≈ 37.8 µM). `COc1ccc(CNC(=O)c2ccc(Br)o2)cc1` [Compound 32, 5-Bromo-furan-2-carboxylic acid 4-methoxy-benzylamide] gave an IC50 of 90.5 µg/mL (≈ 292 µM). `O=C(Nc1cccc(O)c1)c1ccc([N+](=O)[O-])o1` [Compound 35, 5-Nitro-furan-2-carboxylic acid(3-hydroxy-phenyl)-amide] gave an IC50 of 12.5 µg/mL (≈ 50.4 µM). Work on `COc1cccc(NC(=O)c2ccc([S+]([O-])c3ccccc3)o2)c1` (stereo not drawn) [Compound 38, 5-Benzenesulfinyl-furan-2-carboxylic acid(3-methoxy-phenyl)-amide] yielded an IC50 of 65 µg/mL (≈ 190 µM). In the case of `COc1cccc(NC(=O)c2ccc(S(=O)(=O)c3ccccc3)o2)c1` [Compound 39, 5-Benzenesulfonyl-furan-2-carboxylic acid(3-methoxy-phenyl)-amide], the IC50 was 25.9 µg/mL (≈ 72.3 µM). `CCOC(=O)c1ccc(C(=O)Nc2cccc(OC)c2)o1` [Compound 40, 5-(3-Methoxy-phenylcarbamoyl)-furan-2-carboxylic acid ethyl ester] was tested, and the IC50 was 200 µg/mL (≈ 691 µM).

Same assay, conditions: Table 1; Vero cells, alamar blue; unit not given
Work on `O=C(Nc1cccc(Br)c1)c1ccc([N+](=O)[O-])o1` [Compound 11, 5-Nitro-furan-2-carboxylic acid(3-bromo-phenyl)-amide] yielded a ToxIC50 of 15.37. For `COc1ccc(NC(=O)c2ccc([N+](=O)[O-])o2)cc1` [Compound 14, 5-Nitro-furan-2-carboxylic acid(4-methoxy-phenyl)-amide], the ToxIC50 was 21.44. For `O=C(NCc1ccco1)c1ccc([N+](=O)[O-])o1` [Compound 18, 5-Nitro-furan-2-carboxylic acid(furan-2-ylmethyl)-amide], the ToxIC50 was 4.08. With `N#Cc1ccc(NC(=O)c2ccc([N+](=O)[O-])o2)cc1` [Compound 19, 5-Nitro-furan-2-carboxylic acid(4-cyano-phenyl)-amide] the ToxIC50 was 3.53. In the case of `COc1ccc(CNC(=O)c2ccc([N+](=O)[O-])o2)c(OC)c1` [Compound 22, 5-Nitro-furan-2-carboxylic acid 2,4-dimetboxy-benzylamide], the ToxIC50 was 5.38. In the case of `CC(NC(=O)c1ccc([N+](=O)[O-])o1)c1ccccc1` (stereo not drawn) [Compound 29, 5-Nitro-furan-2-carboxylic acid(1-phenyl-ethyl)-amide], the ToxIC50 was 25.63.

These compounds were tested on M. tuberculosis H37Ra (assay: MIC against M. tuberculosis H37Ra, micro broth dilution in microtiter plates). Conditions: M. tuberculosis H37Ra.
`O=C(NCc1cccc(N2CCC(Cc3ccccc3)CC2)c1)c1ccc([N+](=O)[O-])o1` [Compound 70, 5-Nitro-furan-2-carboxylic acid 3-(4-benzyl-piperidin-1-yl)-benzylamide] was tested, and the “anti-tuberculosis MIC activity” value was “extremely potent”. `O=C(c1ccc([N+](=O)[O-])o1)N1CCC(Cc2ccccc2)CC1` [Compound 72] was tested, and the “anti-tuberculosis MIC activity” value was “good activity”. In the case of `O=C(c1ccc([N+](=O)[O-])o1)N1CCN(Cc2ccccc2)CC1` [Compound 73], the “anti-tuberculosis MIC activity” value was “good activity”. With `COc1cc2c(cc1OC)CN(C(=O)c1ccc([N+](=O)[O-])o1)CC2` [Compound 75] the “anti-tuberculosis MIC activity” value was “very potent”.

Same assay, conditions: Mycobacterium tuberculosis, H37RA, 168 h, read-out: TB MIC, Table 1; M. tuberculosis H37Ra, 7 days at 37° C., MIC90
`COc1ccc(CCNC(=O)c2ccc([N+](=O)[O-])o2)cc1` [Compound 28, 5-Nitro-furan-2-carboxylic acid [2-(4-methoxy-phenyl)-ethyl]-amide] was tested, and the MIC was 0.8 µg/mL (≈ 2.76 µM). Work on `O=C(Nc1cccc(OCc2ccccc2)c1)c1ccc([N+](=O)[O-])o1` [Compound 37, 5-Nitro-furan-2-carboxylic acid(3-benzyloxy-phenyl)-amide] yielded an MIC of 12.5 µg/mL (≈ 36.9 µM).

Same assay, conditions: Mycobacterium tuberculosis, H37RA, Table 6; M. tuberculosis H37Ra, MIC90
`O=C(c1ccc([N+](=O)[O-])o1)N1CCN(c2ncccn2)CC1` [Compound 81, (5-Nitro-furan-2-yl)-(4-pyrimidin-2-yl-piperazin-1-yl)-methanone] gave an MIC of 0.1 µg/mL (≈ 0.33 µM). `COc1ccc(CN2CCN(C(=O)c3ccc([N+](=O)[O-])o3)CC2)cc1` [Compound 85, [4-(4-Methoxy-benzyl)-piperazin-1-yl]-(5-nitro-furan-2-yl)-methanone] showed an MIC of 0.1 µg/mL (≈ 0.29 µM). For `COc1cccc(CN2CCN(C(=O)c3ccc([N+](=O)[O-])o3)CC2)c1` [Compound 86, [4-(3-Methoxy-benzyl)-piperazin-1-yl]-(5-nitro-furan-2-yl)-methanone], the MIC was 0.4 µg/mL (≈ 1.16 µM). `O=C(c1ccc([N+](=O)[O-])o1)N1CCN(Cc2cccc(OCc3ccccc3)c2)CC1` [Compound 87, [4-(3-Benzyloxy-benzyl)-piperazin-1-yl]-(5-nitro-furan-2-yl)-methanone] gave an MIC of 0.4 µg/mL (≈ 0.949 µM). For `CCN(CC)c1ccc(CN2CCN(C(=O)c3ccc([N+](=O)[O-])o3)CC2)cc1` [Compound 88, [4-(4-Diethylamino-benzyl)-piperazin-1-yl]-(5-nitro-furan-2-yl)-methanone], the MIC was 0.4 µg/mL (≈ 1.04 µM). For `COc1ccc(CN2CCN(C(=O)c3ccc([N+](=O)[O-])o3)CC2)c(OC)c1` [Compound 89, [4-(2,4-Dimethoxy-benzyl)-piperazin-1-yl]-(5-nitro-furan-2-yl)-methanone], the MIC was 0.2 µg/mL (≈ 0.533 µM). With `O=C(c1ccc([N+](=O)[O-])o1)N1CCN(Cc2ccc(F)cc2)CC1` [Compound 90, [4-(4-Fluoro-benzyl)-piperazin-1-yl]-(5-nitro-furan-2-yl)-methanone] the MIC was 0.4 µg/mL (≈ 1.2 µM). In the case of `CC(=O)c1ccc(N2CCN(C(=O)c3ccc([N+](=O)[O-])o3)CC2)cc1` [Compound 91, 1-{4-[4-(5-Nitro-furan-2-carbonyl)-piperazin-1-yl]-phenyl}-ethanone], the MIC was 0.0031 µg/mL (≈ 0.00903 µM). `COc1ccc(N2CCN(C(=O)c3ccc([N+](=O)[O-])o3)CC2)cc1` [Compound 107, [4-(4-Methoxy-phenyl)-piperazin-1-yl]-(5-nitro-furan-2-yl)-methanone] was tested, and the MIC was 0.05 µg/mL (≈ 0.151 µM). For `O=C(c1ccc(F)cc1)N1CCN(C(=O)c2ccc([N+](=O)[O-])o2)CC1` [Compound 109, [4-(4-Fluoro-benzoyl)-piperazin-1-yl]-(5-nitro-furan-2-yl)-methanone], the MIC was 0.05 µg/mL (≈ 0.144 µM). `COc1ccc(C(=O)N2CCN(C(=O)c3ccc([N+](=O)[O-])o3)CC2)cc1` [Compound 110, [4-(4-Methoxy-benzoyl)-piperazin-1-yl]-(5-nitro-furan-2-yl)-methanone] gave an MIC of 0.05 µg/mL (≈ 0.139 µM). For `CN1CCN(/N=C/c2ccc(CNC(=O)c3ccc([N+](=O)[O-])o3)cc2)CC1` [Compound 111, 5-Nitro-furan-2-carboxylic acid 4-[(4-methyl-piperazin-1-ylimino)-methyl]-benzylamide], the MIC was 0.1 µg/mL (≈ 0.269 µM).

Same assay, conditions: Table 1; M. tuberculosis H37Ra, 7 days at 37° C., MIC90
In the case of `COc1ccc(NC(=O)c2ccc([N+](=O)[O-])o2)cc1Cl` [Compound 1], the “TB MIC” value was 1.6 µg/mL. In the case of `O=C(Nc1cccc(Br)c1)c1ccc([N+](=O)[O-])o1` [Compound 11, 5-Nitro-furan-2-carboxylic acid(3-bromo-phenyl)-amide], the “TB MIC” value was 1.6 µg/mL. For `COc1ccc(NC(=O)c2ccc([N+](=O)[O-])o2)cc1` [Compound 14, 5-Nitro-furan-2-carboxylic acid(4-methoxy-phenyl)-amide], the “TB MIC” value was 0.4 µg/mL. With `O=C(NCc1ccco1)c1ccc([N+](=O)[O-])o1` [Compound 18, 5-Nitro-furan-2-carboxylic acid(furan-2-ylmethyl)-amide] the “TB MIC” value was 6.25 µg/mL. With `N#Cc1ccc(NC(=O)c2ccc([N+](=O)[O-])o2)cc1` [Compound 19, 5-Nitro-furan-2-carboxylic acid(4-cyano-phenyl)-amide] the “TB MIC” value was 0.8 µg/mL. `COc1ccc(CNC(=O)c2ccc([N+](=O)[O-])o2)c(OC)c1` [Compound 22, 5-Nitro-furan-2-carboxylic acid 2,4-dimetboxy-benzylamide] was tested, and the “TB MIC” value was 0.4 µg/mL. In the case of `CC(NC(=O)c1ccc([N+](=O)[O-])o1)c1ccccc1` (stereo not drawn) [Compound 29, 5-Nitro-furan-2-carboxylic acid(1-phenyl-ethyl)-amide], the “TB MIC” value was 1.6 µg/mL. In the case of `CN(C(=O)c1ccc([N+](=O)[O-])o1)c1ccccc1` [Compound 41], the “TB MIC” value was 3.12 µg/mL. For `COc1ccc(N(C)C(=O)c2ccc([N+](=O)[O-])o2)cc1` [Compound 42], the “TB MIC” value was 6.25 µg/mL. For `O=C(c1ccc([N+](=O)[O-])o1)N1CCc2ccccc21` [Compound 43], the “TB MIC” value was 0.8 µg/mL. `O=C(Nc1cccnc1)c1ccc([N+](=O)[O-])o1` [Compound 45] was tested, and the “TB MIC” value was 6.25 µg/mL. For `O=C(Nc1ccncc1)c1ccc([N+](=O)[O-])o1` [Compound 46], the “TB MIC” value was 3.12 µg/mL. In the case of `O=C(NCc1ccccn1)c1ccc([N+](=O)[O-])o1` [Compound 49, 5-nitro-furan-2-carboxylic acid(pyridin-2-ylmethyl)-amide], the “TB MIC” value was 0.8 µg/mL. With `COc1cccc2sc(NC(=O)c3ccc([N+](=O)[O-])o3)nc12` [Compound 50, 5-nitro-furan-2-carboxylic acid(4-methoxy-benzothiazol-2-yl)-amide] the “TB MIC” value was 1.6 µg/mL. `COc1cc(NC(=O)c2ccc([N+](=O)[O-])o2)ncn1` [Compound 51, 5-nitro-furan-2-carboxylic acid(6-methoxy-pyrimin-4-yl)-amide] was tested, and the “TB MIC” value was 1.6 µg/mL.

Same assay, conditions: Table 5; M. tuberculosis H37Ra, MIC90
Compound `O=C(NCc1ccc(N2CC[S+]([O-])CC2)cc1)c1ccc([N+](=O)[O-])o1` [Compound 93, 5-Nitro-furan-2-carboxylic acid 4-(1-oxo-¼-thiomorpholin-4-yl)-benzylamide] has an MIC of 0.8 µg/mL (≈ 2.2 µM). With `O=C(NCc1ccc(N2CCS(=O)(=O)CC2)cc1)c1ccc([N+](=O)[O-])o1` [Compound 94, 5-Nitro-furan-2-carboxylic acid 4-(1,1-dioxo-⅙-thiomorpholin-4-yl)-benzylamide] the MIC was 6.25 µg/mL (≈ 16.5 µM).

Same assay, conditions: Table 6; M. tuberculosis H37Ra, MIC90
`O=C(c1ccc([N+](=O)[O-])o1)N1CCN(c2ccc(F)cc2)CC1` [Compound 108, [4-(4-Fluoro-phenyl)-piperazin-1-yl]-(^5-nitro-furan-2-yl)-methanone] showed an MIC of 0.025 µg/mL (≈ 0.0783 µM).

Same assay, conditions: quoted
`CN(C(=O)c1ccc([N+](=O)[O-])o1)c1ccccc1` [Compound 41] gave an MIC of 3.1 µg/mL (≈ 12.6 µM).
